Measured values from US20100324130A1, “DAA PERIPHERAL BENZODIAZEPINE RECEPTOR LIGAND FOR CANCER IMAGING AND TREATMENT” (priority 2006, published 2010).

Legend:
[1] = molecular target: T1, PBR protein harvested from MA-10 cells (Mus musculus, UniProt P50637); test: Competitive binding study against [3H]PK11195 on PBR protein; details: amino group capped by acetyl group; [3H]PK11195 radioligand; 4° C., 90 minutes
T1 construct: PBR protein was harvested from MA-10 cells and stocked in PBS at 10 mg/mL; endogenous in cells; host or cells: MA-10 cells
Method: More specifically, conjugable form of DAA1106, with 3-9 carbon spacers, has been synthesized, characterized, and used in a competitive binding assay. The amino group was capped by acetyl group to reduce non-specific binding (Scheme 2).
PBR protein was harvested from MA-10 cells and stocked in PBS at 10 mg/mL. The stock solution was diluted to 30 μg/100 μL for the binding study. [^3H]PK11195 was used as radioligand and the specific activity of the stock solution was 73.6 Ci/mmole (˜11.8 μM). A diluted solution of 15 nM in PBS was prepared before use. For each of the molecules tested (NIRDAA, LissDAA and C3-9DAA1106 amide), eight concentrations of solutions from 3×10^−4M to 3×10^−11M in PBS buffer were prepared. 30 test tubes were used for the study of each molecule. 3 of them were used for total binding (100 μL 15 nM [^3H]PK11195+100 μL PBS buffer+100 μL 30 μg/100 μL PBR protein), 3 test tubes were for non-specific binding (100 μL 15 nM [^3H]PK11195+100 μL 15 μM PK11195+100 μL 30 μg/100 μL PBR protein) and the other 24 were triplicates for each doses of competitor ligand (100 μL, 15 nM [^3H]PK11195+100 μL competitor solution+100 μL 30 μg/100 μL PBR protein). All test tubes were vortexed and then incubated at 4° C. for 90 minutes. Reactions were stopped by filtration on FG/B filters using the Brandel binding apparatus through Whatman GF/B filters (Brandel, Gaithersburg, Md.). The filters (24 positions each) were preincubated in PBS/H2O containing 0.05% PEI for 20-30 minutes before filtration. The filters were then washed 5 times with PBS, put in scintillation vials, vortexed in scintillation fluid and counted. The […] and Ki (equilibrium dissociation constant) values were calculated using the PRISM program package

PBR [2] = details: cited from earlier work; for IC50: comparison values for parent ligand
PBR [3] = details: cited from earlier work
[4] = tested on: MDA-MB-231 human breast tumor (high PBR expressing) cells; test: Apoptosis study, CellTiter-Glo luminescent cell viability assay; assay type: cell-based; details: MDA-MB-231, three days
Method: (§1) Apoptosis Study Using Etoposide and EtoposideDAA 50,000 MDA-MB-231 human breast tumor (high PBR expressing) or human Jurkat T lymphocyte cells (low PBR expressing) cells/well were added to 96 well plates and incubated under standard tissue culture conditions (37° C., 5% CO2) for 24 hours. […] After three days, CellTiter-Glo luminescent cell viability assay (Promega) was added. The plates were incubated for an additional one hour and the […] was counted under Xenogen IVIS imaging system. Three wells were used for control which had cells treated with viability assay without drug. Blank […] not have cells or drug, but had viability assay. Medium samples had cells only, without drug or viability assay.

[5] = tested on: human Jurkat T lymphocyte cells (low PBR expressing); test: as above; assay type: cell-based
Method: as §1

IC50 [1] | Ki [1] | Compound | other results
390 nM | 68 ± 23 nM | COc1ccc(NCCCNC(C)=O)c(CN(C(C)=O)c2cc(F)ccc2Oc2ccccc2)c1 [C3DAA1106] | 
800 nM | 141 ± 36 nM | COc1ccc(NCCCCNC(C)=O)c(CN(C(C)=O)c2cc(F)ccc2Oc2ccccc2)c1 [C4DAA1106] | 
840 nM | 149 ± 49 nM | COc1ccc(NCCCCCNC(C)=O)c(CN(C(C)=O)c2cc(F)ccc2Oc2ccccc2)c1 [C5DAA1106] | 
400 nM | 71 ± 33 nM | COc1ccc(NCCCCCCCNC(C)=O)c(CN(C(C)=O)c2cc(F)ccc2Oc2ccccc2)c1 [C7DAA1106] | 
240 nM | 43 ± 19 nM | COc1ccc(NCCCCCCCCNC(C)=O)c(CN(C(C)=O)c2cc(F)ccc2Oc2ccccc2)c1 [C8DAA1106] | 
290 nM | 51 ± 17 nM | COc1ccc(NCCCCCCCCCNC(C)=O)c(CN(C(C)=O)c2cc(F)ccc2Oc2ccccc2)c1 [C9DAA1106] | 

Second part, the compound before the results:

Compound | IC50 [1] | Ki [1] | other results
COc1ccc(NCCCCCCNC(C)=O)c(CN(C(C)=O)c2cc(F)ccc2Oc2ccccc2)c1 [C6DAA1106] | 350 ± 220 nM | 52 ± 30 nM | 
COc1ccc(OC)c(CN(C(C)=O)c2cc(F)ccc2Oc2ccccc2)c1 [DAA1106] |  |  | IC50 (PBR [2]): 0.28 nM; binding affinity for PBR (PBR [2]; fentomolar): 10^−15 M; concentration to displace PBR complexed PK11195 and Ro5-4864 (PBR [3]): 10^−15-10^−12 M
COc1ccc(OC)c(CN(C(C)=O)c2cc(F)ccc2Oc2ccccc2)c1 [[^11C]DAA1106] |  |  | IC50 (PBR [2]): 0.91 nM
COc1cc([C@@H]2c3cc4c(cc3[C@@H](O[C@@H]3O[C@@H]5CO[C@@H](C)O[C@H]5[C@H](O)[C@H]3O)[C@H]3COC(=O)[C@H]23)OCO4)cc(OC)c1O [etoposide, reference compound] |  |  | concentration at which cells were beginning to respond [4]: 10^−4 M; concentration at which cells began to respond ([5]; Jurkat, three days): 10^−6 M; concentration at which cells effectively respond ([5]; Jurkat, three days): 10^−5 M
COc1ccc(NCCCCCCNC(=O)CCOc2c(OC)cc([C@@H]3c4cc5c(cc4[C@@H](OC4OC6COC(C)OC6C(O)C4O)[C@H]4COC(=O)[C@H]34)OCO5)cc2OC)c(CN(C(C)=O)c2cc(F)ccc2Oc2ccccc2)c1 (stereo partly drawn) [etoposide-C6DAA1106] |  |  | concentration at which cells were beginning to respond [4]: 10^−4 M; toxicity to normal cells compared with etoposide ([5]; Jurkat (low PBR expressing)): less toxicity to normal cells than etoposide; concentration at which cells effectively respond ([5]; Jurkat, three days): 10^−4 M
